In US20210246157A1, “CAMPTOTHECIN DERIVATIVES AND PREPARATION METHODS AND APPLICATIONS THEREOF” (priority 2018, published 2021):
Converted amounts (≈) assume the structure as drawn. Where two headings read alike, the source gives them in different places.

Experiments:
HCT-116 = experiment: Cytotoxicity test (MTT, 72 h); details: Homo sapiens, HCT-116, 72 h, read-out: 50% Inhibiting Concentration value (IC50)
Experimental: (§1) In order to investigate the antitumor activities of the compounds, a variety of tumor cell lines for test are selected. Cells at logarithmic growth period are inoculated in a 96-well plate overnight, then drugs with a certain gradient concentrations are added, and incubation is carried out in a cell culture chamber (5% CO2, 37° C.) for 72 h.

HepG2 = experiment: Cytotoxicity test (MTT, 72 h); details: Homo sapiens, HepG2, 72 h, read-out: 50% Inhibiting Concentration value (IC50)
Experimental: as §1

[1] = Solubility test, equilibrium method, UV-visible spectrophotometry; format: physicochemical; details: thermodynamic from solid
Experimental: The solubility test is carried out by equilibrium method. […] An appropriate amount of the compound is weighed and dissolved in 1 mL of methanol solution to prepare a control solution with a certain concentration (C0). The concentration of test solution is calculated according to the following formula: Cx=(Ax/A0)C0, wherein Cx is concentration of test solution, Ax is absorbance of test solution, C0 is concentration of control solution, and A0 is absorbance of control solution.

H1975 = experiment: Cytotoxicity test (MTT, 72 h); details: Homo sapiens, NCI-H1975, 72 h, read-out: 50% Inhibiting Concentration value (IC50)
Experimental: as §1

PC3 = experiment: Cytotoxicity test (MTT, 72 h); details: Homo sapiens, PC-3, 72 h, read-out: 50% Inhibiting Concentration value (IC50)
Experimental: as §1

TPC-1 = experiment: Cytotoxicity test (MTT, 72 h); details: Homo sapiens, TPC1, 72 h, read-out: 50% Inhibiting Concentration value (IC50)
Experimental: (§2) Cells at logarithmic growth period are inoculated in a 96-well plate overnight, then drugs with a certain gradient concentrations are added, and incubation is carried out in a cell culture chamber (5% CO2, 37° C.) for 72 h.

A549 = experiment: Cytotoxicity test (MTT, 72 h); details: Homo sapiens, A549, 72 h, read-out: 50% Inhibiting Concentration value (IC50)
Experimental: as §1

Hela = experiment: Cytotoxicity test (MTT, 72 h); details: Homo sapiens, read-out: 50% Inhibiting Concentration value (IC50)
Experimental: as §1

MDA-MB-231 = experiment: Cytotoxicity test (MTT, 72 h); details: Homo sapiens, MDA-MB-231, 72 h, read-out: 50% Inhibiting Concentration value (IC50)
Experimental: as §1

PANC-1 = experiment: Cytotoxicity test (MTT, 72 h); details: Homo sapiens, PANC-1, 72 h, read-out: 50% Inhibiting Concentration value (IC50)
Experimental: as §2

SKOV-3 = experiment: Cytotoxicity test (MTT, 72 h); details: Homo sapiens, SK-OV-3, 72 h, read-out: 50% Inhibiting Concentration value (IC50)
Experimental: as §2

BGC-823 = experiment: Cytotoxicity test (MTT, 72 h); details: Homo sapiens, BGC-823, 72 h, read-out: 50% Inhibiting Concentration value (IC50)
Experimental: as §1

K562 = experiment: Cytotoxicity test (MTT, 72 h); details: Homo sapiens, K562, 72 h, read-out: 50% Inhibiting Concentration value (IC50)
Experimental: as §1

ECA-109 = experiment: Cytotoxicity test (MTT, 72 h); details: Homo sapiens, ECa-109, 72 h, read-out: 50% Inhibiting Concentration value (IC50)
Experimental: as §1

143B = experiment: Cytotoxicity test (MTT, 72 h); details: Homo sapiens, read-out: 50% Inhibiting Concentration value (IC50)
Experimental: as §1

HT-29 = experiment: Cytotoxicity test (MTT, 72 h); details: Homo sapiens, HT-29, 72 h, read-out: 50% Inhibiting Concentration value (IC50)
Experimental: as §2

SW-480 = experiment: Cytotoxicity test (MTT, 72 h); details: Homo sapiens, SW480, 72 h, read-out: 50% Inhibiting Concentration value (IC50)
Experimental: as §2

[2] = aqueous with cosolvent or surfactant or cyclodextrin
[3] = aqueous buffer, PBS pH 7.4, read-out: Solubility in PBS (pH = 7.4)
[4] = aqueous with cosolvent or surfactant or cyclodextrin, 0.1% aqueous solution of Tween-80, read-out: Solubility in 0.1% Tween-80
[5] = saline or isotonic, normal saline, read-out: Solubility in Normal Saline (NS)
[6] = water, read-out: Solubility in Water

Compound | IC50 (HCT-116) [µM] | IC50 (HepG2) [µM] | solubility [1, 2] [µg/mL] | solubility ([1]; pH 7.4, aqueous buffer) [µg/mL] | solubility ([1]; saline or isotonic) [µg/mL] | solubility ([1]; water) [µg/mL] | IC50 (H1975) [µM] | IC50 (PC3) [µM] | IC50 (TPC-1) [µM] | IC50 (A549) [µM] | IC50 (Hela) [µM] | IC50 (MDA-MB-231) [µM] | IC50 (PANC-1) [µM] | IC50 (SKOV-3) [µM] | IC50 (BGC-823) [µM] | IC50 (K562) [µM] | IC50 (ECA-109) [µM] | IC50 (143B) [µM] | IC50 (HT-29) [µM] | IC50 (SW-480) [µM] | other results
CCc1c2c(nc3ccc(OC(=O)OCCOCc4cn([C@H]5O[C@@H](CO)[C@H](O)[C@@H](O)[C@@H]5O)nn4)cc13)-c1cc3c(c(=O)n1C2)COC(=O)[C@]3(O)CC [Compound 37] | 2.34 | 2.19 | 360 (≈ 497 µM) | 54.4 (≈ 75.2 µM) | 725 (≈ 1000 µM) | 159 (≈ 220 µM) | 21.1 | 10.9 | 18.3 | 13.1 | 12.7 | 1.82 | 13.7 | 2.63 | 1.25 | 1.95 | 1.62 | 17.6 | 1.94 | 0.014 | –
CCc1c2c(nc3ccc(OC(=O)OCCOCCOCCOCCOCc4cn([C@H]5O[C@@H](CO)[C@H](O)[C@@H](O)[C@@H]5O)nn4)cc13)-c1cc3c(c(=O)n1C2)COC(=O)[C@]3(O)CC [Compound 42] | 3.01 | 0.174 | 120 (≈ 140 µM) | 85.2 (≈ 99.6 µM) | 5870 (≈ 6860 µM) | 162 (≈ 189 µM) | 12.8 | 4.77 | 15.3 | 5.73 | 6.87 | 0.145 | 6.87 | 0.209 | 0.139 | 2.5 | 11.3 | 10.6 | 13.5 | 0.167 | –
CCc1c2c(nc3ccc(OC(=O)OCCOCCOCc4cn([C@H]5O[C@@H](CO)[C@H](O)[C@@H](O)[C@@H]5O)nn4)cc13)-c1cc3c(c(=O)n1C2)COC(=O)[C@]3(O)CC [Compound 47] | 0.273 | 2.74 | 650 (≈ 846 µM) | 60.8 (≈ 79.2 µM) | 511 (≈ 665 µM) | 109 (≈ 142 µM) | 10.8 | 2.46 | 12.9 | 2.95 | 3.54 | 2.28 | 3.54 | 3.29 | 0.228 | 0.228 | 0.578 | 8.96 | 0.694 | 0.274 | –
CCc1c2c(nc3ccc(OC(=O)OCCOCCOCCOCc4cn([C@H]5O[C@@H](CO)[C@H](O)[C@@H](O)[C@@H]5O)nn4)cc13)-c1cc3c(c(=O)n1C2)COC(=O)[C@]3(O)CC [Compound 52] | 0.527 | 8.22 | 320 (≈ 394 µM) | 85.2 (≈ 105 µM) | 446 (≈ 549 µM) | 3050 (≈ 3750 µM) | 21.8 | 9.26 | 26.1 | 11.1 | 13.3 | 6.85 | 13.3 | 9.86 | 0.139 | 0.439 | 0.716 | 18.1 | 0.859 | 0.167 | –
CCc1c2c(nc3ccc(OC(=O)OCCOCc4cn(CCO[C@H]5O[C@@H](CO)[C@H](O)[C@@H](O)[C@@H]5O)nn4)cc13)-c1cc3c(c(=O)n1C2)COC(=O)[C@]3(O)CC [Compound 56] | 0.137 | 10.2 | 2180 (≈ 2830 µM) | 85.2 (≈ 111 µM) | 1110 (≈ 1440 µM) | 636 (≈ 828 µM) | 8.25 | 3.91 | 9.9 | 4.7 | 5.63 | 8.53 | 5.63 | 12.3 | 0.093 | 0.114 | 7.83 | 6.88 | 9.39 | 0.112 | –
CCc1c2c(nc3ccc(OC(=O)OCCOCCOCc4cn(CCO[C@H]5O[C@@H](CO)[C@H](O)[C@@H](O)[C@@H]5O)nn4)cc13)-c1cc3c(c(=O)n1C2)COC(=O)[C@]3(O)CC [Compound 57] | 1.39 | 5.15 | 6460 (≈ 7950 µM) | 361 (≈ 444 µM) | 4290 (≈ 5290 µM) | 178 (≈ 219 µM) | 12.1 | 17.4 | 14.6 | 20.9 | 15.1 | 4.29 | 22.1 | 6.17 | 0.137 | 1.16 | 1.4 | 10.1 | 1.68 | 0.164 | –
CCc1c2c(nc3ccc(OC(=O)OCCOCCOCCOCCOCc4cn(CCO[C@H]5O[C@@H](CO)[C@H](O)[C@@H](O)[C@@H]5O)nn4)cc13)-c1cc3c(c(=O)n1C2)COC(=O)[C@]3(O)CC [Compound 59] | 1.67 | 2.73 | 1200 (≈ 1340 µM) | 984 (≈ 1090 µM) | 854 (≈ 949 µM) | 1480 (≈ 1650 µM) | 10.5 | 6.69 | 12.6 | 8.03 | 9.64 | 2.28 | 9.64 | 3.28 | 1.01 | 1.39 | 0.939 | 8.77 | 1.13 | 1.21 | –
CCc1c2c(nc3ccc(OC(=O)NCCOCc4cn([C@H]5O[C@@H](CO)[C@H](O)[C@@H](O)[C@@H]5O)nn4)cc13)-c1cc3c(c(=O)n1C2)COC(=O)[C@]3(O)CC [Compound 66] | 0.843 | 1.62 | – | – | – | – | 8.46 | 4.71 | 10.2 | 5.65 | 6.78 | 1.35 | 6.78 | 1.95 | 0.18 | 0.703 | 4.26 | 7.05 | 5.11 | 0.216 | solubility [1, 3]: 2880 µg/mL (≈ 3980 µM); solubility [1, 4]: 1140 µg/mL (≈ 1580 µM); solubility [1, 5]: 1590 µg/mL (≈ 2210 µM); solubility [1, 6]: 979 µg/mL (≈ 1350 µM)
CCc1c2c(nc3ccc(OC(=O)NCCOCCOCc4cn([C@H]5O[C@@H](CO)[C@H](O)[C@@H](O)[C@@H]5O)nn4)cc13)-c1cc3c(c(=O)n1C2)COC(=O)[C@]3(O)CC [Compound 73] | 0.879 | 2.42 | – | – | – | – | 7.14 | 4.85 | 8.57 | 5.82 | 6.99 | 2.02 | 6.99 | 2.91 | 0.718 | 0.733 | 2.63 | 5.95 | 3.16 | 0.862 | solubility [1, 3]: 414 µg/mL (≈ 540 µM); solubility [1, 4]: 1260 µg/mL (≈ 1650 µM); solubility [1, 5]: 1440 µg/mL (≈ 1880 µM); solubility [1, 6]: 3580 µg/mL (≈ 4670 µM)
CCc1c2c(nc3ccc(OC(=O)NCCOCCOCc4cn(CCO[C@H]5O[C@@H](CO)[C@H](O)[C@@H](O)[C@@H]5O)nn4)cc13)-c1cc3c(c(=O)n1C2)COC(=O)C3(O)CC (some centres unmarked) [Compound 74] | 2.52 | 6.35 | – | – | – | – | 6.82 | 7.85 | 8.19 | 9.42 | 11.3 | 5.29 | 11.3 | 7.62 | 1.72 | 2.1 | 6.63 | 5.69 | 7.96 | 2.06 | solubility [1, 3]: 565 µg/mL (≈ 696 µM); solubility [1, 4]: 2750 µg/mL (≈ 3390 µM); solubility [1, 5]: 3950 µg/mL (≈ 4880 µM); solubility [1, 6]: 792 µg/mL (≈ 977 µM)
